Patent US4734406A, “3-pyridylmethylnaphthyl derivatives and composition containing them useful to inhibit thromboxane synthetase” (priority 1985, dated 1988)
Structures can show the parent of a compound that is named as a salt.

Columns and labels:
human platelets = assay: Inhibition of the arachidonic acid-induced aggregation of human platelets in vitro; type: cell-based; settings: Platelet, PRP, 10 min preincubation at 37° C., 2×10^-4 M arachidonic acid
Protocol: 1. Inhibition of the arachidonic acid-induced aggregation of human platelets in vitro.
The platelet aggregation is followed optically by measurement of the transmission of light in a Born aggregometer. The total volume of the test mix is 0.25 ml. The preincubation time at 37° C. with the test product is 10 min, and aggregation is then induced with 2×10^-4 M arachidonic acid. The test product is, as a rule, tested in five different concentrations in the PRP from three different donors. Dose-effect curves are drawn from the maximal aggregation amplitudes in each case, and the IC50 values are determined graphically. […] The measurements are carried out in the period 1-6 hours after blood sampling.

[1] = test system: TXA2 release in platelet-rich human plasma; assay: Thrombin-induced TXA2 release in platelet-rich human plasma in vitro (TXB2 radioimmunoassay); type: cell-based; settings: 0.5 h, relative TXB2 content, without test substance = 100%, 0.5 U thrombin + 7.2×10^-7 M arachidonic acid; for activity at 1 µM: 10^-6 mol/l test substance; for activity at 0.1 µM: 10^-7 mol/l test substance
Protocol: 2. Thrombin-induced TXA2 release in platelet-rich human plasma in vitro Blood is taken, by careful cannulation of the antecubital vein, from apparently healthy male and female volunteers, who have taken no medicaments in the preceding 10-day period, and is immediately stabilized with sodium citrate (ad. 0.38%). Platelet-rich plasma (PRP) is obtained in the supernatant by centrifugation at 140×g for 15 minutes, and the platelet content of this should be in the range 2.5-3.5×10^8 /ml. […] This is stopped in an ice bath and, after addition of tracer and TXB2 -specific antibodies (NEN, Dreieich), the TXB2 content is determined radioimmunologically (TXA2 is unstable under the experimental conditions and thus cannot be measured. The stable hydrolysis product TXB2 is measured in its place). The measured variable is the relative TXB2 content in the platelet incubations from two or three different donors with and without (=100%) the test substance.

Laser-induced thrombosis = assay: Inhibition of Laser-induced thrombosis; type: in vivo, Sprague-Dawley rats; settings: 10 mg/kg p.o., one hour before start; mesentery arterioles, rat
Protocol: 3. Inhibition of Laser-induced thrombosis
The investigations of the compounds according to the invention in the model of Laser-induced thrombosis are carried out on male or female Sprague-Dawley rats with a body weight of about 200 g. The animals to be investigated are premedicated s.c. with 0.1 mg of atropine sulfate in solution, and anesthetized i.p. with 100 mg of ketamine hydrochloride and 4 mg of xylazine per kg of body weight. Arterioles from the mesentry, with a diameter of 12-25 μm, are used for the investigation. During the measurement, the exposed mesentry is hyperfused with warmed physiological NaCl (37° C.) or is covered with degassed liquid paraffin. The beam of a 4 W argon laser (supplied by Spectra Physics, Darmstadt, FRG) is introduced coaxially into the inverted ray path of a microscope (ICM 405, LD-Epilan 40/0.60; supplied by Zeiss, Oberkochen, FRG) by means of a ray adaptation and adjustment system (supplied by BIG, Munich, FRG). […]
The number of shots needed to induce a defined thrombus was counted. The frequency of the laser flashes was one lesion every 2 minutes, all the thrombi with a minimum size of 1/4 of the vessel radius which were formed during the observation period being counted and measured. The results of the experiment were statistically analyzed using the x^2 test (L. Cavalli-Sforza, Biometrie, Stuttgart, 1969, pages 49 et seq.).

Row | Structure (SMILES) | IC50 (human platelets) | activity at 1 µM [1] | activity at 0.1 µM [1] | Number of laser shots to form a thrombus (compared with control) (Laser-induced thrombosis)
1 | O=C(O)c1ccc2cc(C(O)c3cccnc3)ccc2c1 (stereo not shown) [Example 9, hydrochloride of 6-[1-hydroxy-1-(3-pyridyl)methyl]-2-naphthoic acid] | 1.7 µM | 21% | 64% | 
2 | Cc1ccncc1C(O)c1ccc2cc(C(=O)O)ccc2c1.Cl (stereo not shown) [Example 8, 6-[1-Hydroxy-1-(4-methyl-3-pyridyl)methyl]-2-naphthoic acid hydrochloride] | 6.3 µM | 13% | 88% | +56%
